Where “and” joins values, the source holds several entries; their conditions need not be identical. Equal entries are not always repeated.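 Growth conditions: 96-well plates. Treatment: test compound, 48 hours, 5 concentrations. Analysis: linear interpolation between bracketing concentrations; unreached endpoints set to highest concentration. At the GI50, growth is halved. Definition used: TGI = concentration required for complete inhibition of growth.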
Columns and labels:
Experiment in all cases: NCI tumour cell line growth inhibition, 48 h
[1] = system: LOX IMVI melanoma
[2] = system: K-562 leukemia
[3] = system: HOP-92 NSCLC
[4] = system: A498 renal
[5] = system: HS 578T breast
[6] = system: COLO 205 colon
[7] = system: SNB-19 CNS
[8] = system: T-47D breast
[9] = system: SF-539 CNS
[10] = system: MOLT-4 leukemia
[11] = system: HCT-116 colon
[12] = system: SF-295 CNS
[13] = system: 786-0 renal

Compound | TGI [1] | TGI [2] | TGI [3] | TGI [4] | TGI [5] | TGI [6] | TGI [7] | TGI [8] | TGI [9] | TGI [10] | TGI [11] | TGI [12] | TGI [13] | GI50 [10] | GI50 [11] | GI50 [3] | GI50 [9] | GI50 [5] | GI50 [8] | GI50 [4]
CC(=O)OC/C=C\Cn1nc(Br)c(=O)[nH]c1=O | 20.1 µM | 26.5 µM | 27.9 µM | 34.7 µM | 54 µM | 29.6 µM | 37.7 µM | 37.1 µM | 24.7 µM |  |  |  |  |  |  |  |  |  |  | 
CC1(C)Cc2c(C#N)c(N)c3c(c2CO1)C(=O)OC3=O | > 100 µM | > 100 µM |  |  |  | > 100 µM | > 100 µM |  | > 100 µM | > 100 µM | > 100 µM |  |  |  |  |  |  |  |  | 
Cc1[nH]nc(N)c1C(N)=O | > 100 µM | > 100 µM |  | > 100 µM |  | > 100 µM | > 100 µM |  | > 100 µM | > 100 µM |  | > 100 µM |  |  |  |  |  |  |  | 
COC(=O)c1c(O)ccc2c1c1c(n2Cc2ccc(Cl)cc2Cl)C(=O)c2ccccc2C1=O | 33.3 µM | 22.5 µM | 25.1 µM | 33.7 µM | 33.1 µM | 24.3 µM | 30.6 µM | 13.7 µM | 27.7 µM | 7.17 µM | 13.1 µM | 31.5 µM | 22.9 µM |  |  |  |  |  |  | 
COc1cccc(/C=N/[N-]C(N)=O)c1[O-].[Ni+2].[OH3+].c1ccc(-c2ccccn2)nc1 | > 100 µM | > 100 µM | 98.1 µM |  |  | > 100 µM |  |  | > 100 µM | > 100 µM | > 100 µM | > 100 µM |  |  |  |  |  |  |  | 
COc1cc(S(=O)(=O)Nc2ccc(-c3csc(N)n3)cc2)ccc1Cl | 34.8 µM | 44.3 µM | 39.5 µM | 59.2 µM | > 100 µM | 33.6 µM | 33.8 µM | 23 µM | > 100 µM | 31.7 µM | 29.7 µM |  | 30 µM |  |  |  |  |  |  | 
O=C(N/N=C/c1cc(Cl)cc(Cl)c1[O-])c1ccccc1O.O=C(N/N=C/c1cc(Cl)cc(Cl)c1[O-])c1ccccc1O.[Zn+2] | 14.6 µM | 33.4 µM | 4.98 µM |  |  |  | 15 µM |  | 5.75 µM | 18 µM | 14.5 µM | 5.21 µM |  | 0.0115 µM | 0.337 µM | 0.363 µM | 0.852 µM |  |  | 
OC1CCOc2ccccc21 (stereo not given) | > 100 µM | > 100 µM |  |  |  | > 100 µM | > 100 µM |  | > 100 µM | > 100 µM | > 100 µM |  |  |  |  |  |  |  |  | 
CC(=O)NC(c1nc2cc(C)c(C)cc2[nH]1)c1nc2cc(C)c(C)cc2[nH]1 | 59.1 µM | > 100 µM | 43.3 µM | 35.4 µM | 79.2 µM | 43.4 µM | > 100 µM | > 100 µM | 30.5 µM | 26.6 µM | 53.7 µM | 49.1 µM |  |  |  |  |  |  |  | 
S=C1CC(c2ccccc2)Sc2ccccc2N1 (stereo not given) | > 100 µM | > 100 µM |  |  | > 100 µM | > 100 µM | > 100 µM | > 100 µM |  | > 100 µM | > 100 µM | > 100 µM |  |  |  |  |  |  |  | 
NC(=O)CCC(N=C(N)c1csc(C2OC(CO)C(O)C2O)n1)C(=O)O (stereo not given) | > 100 µM | > 100 µM |  | > 100 µM |  | > 100 µM |  |  | > 100 µM | > 100 µM |  | > 100 µM |  |  |  |  |  |  |  | 
CCOC(=O)c1c(Cl)nc2ccccc2c1N=[N+]=[N-] | 39.3 µM | > 100 µM | 59.5 µM | > 100 µM | 77.8 µM | 36.1 µM | > 100 µM | 45.7 µM | 37.7 µM | > 100 µM | 43 µM | > 100 µM |  |  |  |  |  |  |  | 
COc1ccc(/C(O)=C/c2nc3cccnc3nc2/C=C(\O)c2ccc(OC)cc2)cc1 | 44.5 µM | > 100 µM | > 100 µM | > 100 µM | 43.7 µM | > 100 µM | 57.5 µM | 86.1 µM | 25.4 µM | > 100 µM | 52.3 µM | 46.3 µM | 10.4 µM |  |  |  |  |  |  | 
CC(=O)NC(CCC(=O)C=[N+]=N)C(=O)O (stereo not given) | > 100 µM | > 100 µM | > 100 µM | > 100 µM | > 100 µM | > 100 µM | > 100 µM | > 100 µM | > 100 µM | > 100 µM | > 100 µM | > 100 µM | > 100 µM |  |  |  |  |  |  | 
Cc1oc2c(Cl)cc(O)c(Cl)c2c2cccc1-2 | 36.1 µM | 47.4 µM | 52.1 µM | > 100 µM | > 100 µM | > 100 µM | > 100 µM | 16.5 µM | 71.4 µM |  | 36.4 µM | > 100 µM | 76 µM |  |  |  |  |  |  | 
[O-][n+]1ccccc1S | > 100 µM |  | > 100 µM | > 100 µM | 56.4 µM | 1.7 µM | > 100 µM | > 100 µM | > 100 µM |  | 4.5 µM | 9.51 µM | > 100 µM |  |  |  |  | 2.91 µM | 6.27 µM | 
O=S(=O)(O)c1ccc(N=Nc2c(O)ccc3cc(Br)ccc23)cc1 | > 100 µM |  | > 100 µM | > 100 µM | > 100 µM | > 100 µM | > 100 µM | > 100 µM |  | > 100 µM | > 100 µM | > 100 µM | > 100 µM |  |  |  |  |  |  | 
CNC(=O)SCC(N)C(=O)O (stereo not given) | > 89.3 µM | > 100 µM | > 100 µM | > 100 µM |  | > 100 µM | > 100 µM |  | > 100 µM | > 100 µM | > 100 µM | > 100 µM |  |  |  |  |  |  |  | 
Cc1ccc(-c2cc(C(F)(F)F)nn2-c2ccc(S(N)(=O)=O)cc2)cc1 | 31.7 µM | > 50.6 µM | 29.8 µM | 43.4 µM | 58.7 µM | 50.8 µM | > 56.7 µM | > 61.8 µM | > 59.4 µM | 53.2 µM | > 58.2 µM | 55.4 µM | > 89.2 µM |  |  | 12 µM |  |  |  | 
CC1CCC2(C(=O)O)CCC3(C)C(=CCC4C5(C)CCC(O)C(C)(C)C5CCC43C)C2C1C (stereo not given) | 17.2 µM and > 100 µM | 15.6 µM | 21.1 µM and 42.6 µM | 23.3 µM and 45.3 µM | 25.2 µM | 26.3 µM and 28.3 µM | 17.9 µM | 29.3 µM | 22.5 µM and 35.6 µM | 16.7 µM and 37.2 µM | 17.9 µM and > 100 µM | 10.2 µM | > 100 µM | 3.66 µM and 12.1 µM |  |  |  |  |  | 7.07 µM and 22.6 µM
CCCC(=O)NC1CCc2cc(OC)c(OC)c(OC)c2-c2ccc(OC)c(=O)cc21 (stereo not given) | > 100 µM | > 100 µM |  |  |  |  | > 100 µM |  | 0.00199 µM |  | > 100 µM |  | > 100 µM |  |  |  |  |  |  | 
CC1CC[C@@]2(OC1)OC1CC3C4CCC5C[C@@H](OC6OC(CO)C(OC7OC(CO)C(O)C(OC8OC(CO)C(O)C(OC9OC(CO)C(O)C(O)C9O)C8O)C7OC7OC(CO)C(O)C(O)C7O)C(O)C6O)[C@H](O)C[C@]5(C)C4CC[C@]3(C)C1[C@@H]2C (stereo not given in full) | > 80.5 µM | > 80.5 µM | > 80.5 µM | > 80.5 µM | > 80.5 µM | > 80.5 µM | > 80.5 µM | > 80.5 µM | > 80.5 µM |  | > 80.5 µM | > 80.5 µM | > 80.5 µM |  |  |  |  |  |  | 
CCC(=O)c1ccc2[nH]c3c(C)c4c(=O)cc(C)[nH]c4c(C)c3c2c1 | > 100 µM |  | 82.3 µM | > 100 µM | > 100 µM | > 100 µM | > 100 µM | > 100 µM | > 100 µM | > 100 µM | > 100 µM | > 100 µM | > 100 µM |  |  |  |  |  |  | 
CC(=O)O[C@H]1/C(=C/c2ccncc2)C[C@H]2[C@@H]3CC=C4C[C@@H](N5CCCC5)CC[C@]4(C)[C@H]3CC[C@]12C | 6.82 µM | 12.5 µM | 19.8 µM | 30.9 µM | 33.7 µM | 25.5 µM | 31.9 µM | 29.3 µM | 35 µM | 30.3 µM | 15.3 µM | 29.4 µM | 10.3 µM |  |  |  |  |  |  | 
